Columns and labels:
[1] = biological target: isolated recombinant JAK1 kinase domain (Homo sapiens (Human), UniProt P23458); experiment: JAK1 enzyme assay (Caliper LabChip, peptide phosphorylation); type: biochemical; settings: 25 μM ATP
Method: (§1) JAK Enzyme Assays were carried out as follows:
(§2) The activity of the isolated recombinant JAK1 and JAK2 kinase domain was measured by monitoring phosphorylation of a peptide derived from JAK3 ([…] fluorescently labeled on the N-terminus with 5-carboxyfluorescein) using the Caliper LabChip® technology (Caliper Life Sciences, Hopkinton, Mass.). […] Reactions were incubated at 22° C. in 384-well polypropylene microtiter plates for 30 minutes and then stopped by addition of 25 μL of an EDTA containing solution (100 mM HEPES buffer (pH 7.2), 0.015% Brij-35, 150 mM EDTA), resulting in a final EDTA concentration of 50 mM. After termination of the kinase reaction, the proportion of phosphorylated product was determined as a fraction of total peptide substrate using the Caliper LabChip® 3000 according to the manufacturer's specifications.

[2] = biological target: isolated recombinant JAK2 kinase domain (Homo sapiens (Human), UniProt O60674); experiment: JAK2 enzyme assay (Caliper LabChip, peptide phosphorylation); type: biochemical; settings: 25 μM ATP
isolated recombinant JAK2 kinase domain, sequence (O60674 849-1124): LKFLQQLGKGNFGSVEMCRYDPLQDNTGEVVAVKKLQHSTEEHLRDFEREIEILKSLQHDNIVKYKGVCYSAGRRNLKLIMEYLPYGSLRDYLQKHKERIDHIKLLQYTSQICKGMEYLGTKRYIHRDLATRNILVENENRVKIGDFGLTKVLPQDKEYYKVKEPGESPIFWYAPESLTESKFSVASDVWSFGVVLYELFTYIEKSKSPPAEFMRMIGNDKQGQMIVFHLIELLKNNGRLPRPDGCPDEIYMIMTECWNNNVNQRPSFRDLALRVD
Method: as §1, §2

[3] = Clearance assay: mouse intravenous (IV) clearance; type: in vivo; settings: female BALB/c mice, single IV dose of 1 mg/kg
Source text: In certain instances high systemic clearance of a drug substance may be of benefit. For example, in the treatment of pulmonary diseases it may be beneficial to have high drug concentrations in the lung, with lower concentrations in the bloodstream or peripheral organs. In such cases, it may be advantageous to administer a drug substance with high systemic clearance via the inhaled delivery route. This approach may maximize pharmacologic activity of the drug substance in the lung while minimizing the possibility of on-target toxicity elsewhere in the body. The functional groups appended to the 5-chloro-2-difluoromethoxyphenyl pyrazolopyrimidine scaffold affect systemic clearance.
Female BALB/c mice were obtained from Charles River Labs (Hollister, Calif. USA). Twelve animals were given a single IV dose of 1 mg/kg of compounds via the tail vein. A representative dose solution was prepared as follows: the compound was dissolved in a mixture of 5% dimethylsulfoxide (DMSO), 35% polyethylene glycol (PEG 400), and 60% water (v/v/v), respectively, and administered at a dosing volume of 5 mL/kg. Mice weighed approximately 20-25 g at the start of the study. […] PK data analysis was performed on mean plasma concentration-time data and PK parameters were determined by non compartmental methods using WinNonlin® Enterprise, version 5.2.1 (Pharsight Corporation; Mountain View, Calif.).

isolated recombinant JAK1 kinase domain, sequence (P23458 875-1153): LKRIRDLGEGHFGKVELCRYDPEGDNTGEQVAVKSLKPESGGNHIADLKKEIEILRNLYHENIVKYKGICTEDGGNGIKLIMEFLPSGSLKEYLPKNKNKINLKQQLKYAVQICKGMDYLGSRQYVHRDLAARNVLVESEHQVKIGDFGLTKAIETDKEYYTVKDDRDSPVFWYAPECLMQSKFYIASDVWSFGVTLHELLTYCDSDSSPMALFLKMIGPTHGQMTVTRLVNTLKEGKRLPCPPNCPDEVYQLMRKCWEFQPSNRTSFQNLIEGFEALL

| Structure (SMILES) | Ki [1] [nM] | Ki [2] [nM] | mouse IV clearance as % of mouse liver blood flow [3] |
| --- | --- | --- | --- |
| CNC(=O)[C@@H]1CCCN1CC1CCN(C(=O)Cn2cc(NC(=O)c3cnn4cccnc34)c(-c3cc(Cl)ccc3OC(F)F)n2)CC1 [Example 425, N-(3-(5-chloro-2-(difluoromethoxy)phenyl)-1-(2-(4-(((S)-2-(methylcarbamoyl)pyrrolidin-1-yl)methyl)piperidin-1-yl)-2-oxoethyl)-1H-pyrazol-4-yl)pyrazolo[1,5-a]pyrimidine-3-carboxamide] | 0.6 | 1.64 | – |
| CC(C)(O)Cn1cc(NC(=O)c2cnn3cccnc23)c(-c2cc(Cl)ccc2OC(F)F)n1 [compound i] | – | – | 6 % of mouse liver blood flow |
